Assay results: patent publication US10493077B2, “Fused imidazo-piperidine JAK inhibitor compound” (THERAVANCE BIOPHARMA R&D IP, LLC, priority 2017, dated 2019)

Legend:
Tyk2 = target: T1, Tyk2 (Homo sapiens, UniProt P29597); assay: LanthaScreen JAK biochemical assay, Tyk2; conditions: read-out: Tyk2 pKi (converted)
T1 construct: GST; purchased Life Technologies
Procedure: (§1) A panel of four LanthaScreen JAK biochemical assays (JAK1, 2, 3 and Tyk2) were carried in a common kinase reaction buffer (50 mM HEPES, pH 7.5, 0.01% Brij-35, 10 mM MgCl2, and 1 mM EGTA). Recombinant GST-tagged JAK enzymes and a GFP-tagged STAT1 peptide substrate were obtained from Life Technologies.
(§2) Serially diluted compound was pre-incubated with each of the four JAK enzymes and the substrate in white 384-well microplates (Corning) at ambient temperature for 1 h. ATP was subsequently added to initiate the kinase reactions in 10 μL total volume, with 1% DMSO. […] The plates were allowed to incubate at ambient temperature for 1 h before being read on the EnVision reader (Perkin Elmer). Emission ratio signals (520 nm/495 nm) were recorded and utilized to calculate the percent inhibition values based on DMSO and background controls.
(§3) For dose-response analysis, percent inhibition data were plotted vs. compound concentrations, and IC50 values were determined from a 4-parameter robust fit model with the Prism software (GraphPad Software). Results were expressed as pIC50 (negative logarithm of IC50) and subsequently converted to pKi (negative logarithm of dissociation constant, Ki) using the Cheng-Prusoff equation.

IFNγ induced IP-10 = assay: Pharmacodynamic assay: inhibition of IFNγ-induced IP-10 in rabbit eyes; assay type: in vivo; conditions: Form 1 suspension, 0.9 mg intravitreal, 1 week pre-treatment, New Zealand White rabbits
Procedure: The ability of a single intravitreal administration of test compound to inhibit interferon-gamma (IFNγ) induced IP-10 protein levels was measured in rabbit vitreous and retina/choroid tissues.
A suspension formulation was prepared by combining compound 1 of Example 2 (Form 1), with 0.5% hydroxypropyl methylcellulose (HPMC E5), 0.02% Tween 80, and 9 mg/mL sodium chloride in purified water to attain a target concentration of 20 mg/mL.
Male, New Zealand White rabbits (Liveon Biolabs, India) were used for the studies. Animals were acclimated after arrival at the research facilities (Jubilant Biosys Ltd., India). Each rabbit was given a total of two intravitreal (IVT) injections with a total dose volume of 50 μL per eye. The first IVT injection (45 μL per eye) delivered 0.9 mg of test compound or vehicle. One week later, a second IVT injection (5 μL per eye) delivered IFNγ (1 μg/eye; stock solution 1 mg/mL; Kingfisher Biotech) or vehicle for the induction of IP-10. […]
Tissues were collected 24 hours after the second IVT injection with IFNγ. Vitreous humor (VH) and retina/choroid tissues (R/C) were collected and homogenized, and IP-10 protein levels were measured using a rabbit CXCL10 (IP-10) ELISA kit (Kingfisher Biotech). The percent inhibition of IFNγ-induced IP-10 was calculated in comparison to the vehicle/vehicle and vehicle/IFNγ groups.

CSF1R = target: T2, CSF1R (Homo sapiens, UniProt P07333); assay: Kinome screen, CSF1R; assay type: binding; conditions: screened at 1 μM
T2 construct: made in house; host or cells: T7 phage in E. coli (BL21-derived) or HEK-293
T2 sequence (P07333 20-972): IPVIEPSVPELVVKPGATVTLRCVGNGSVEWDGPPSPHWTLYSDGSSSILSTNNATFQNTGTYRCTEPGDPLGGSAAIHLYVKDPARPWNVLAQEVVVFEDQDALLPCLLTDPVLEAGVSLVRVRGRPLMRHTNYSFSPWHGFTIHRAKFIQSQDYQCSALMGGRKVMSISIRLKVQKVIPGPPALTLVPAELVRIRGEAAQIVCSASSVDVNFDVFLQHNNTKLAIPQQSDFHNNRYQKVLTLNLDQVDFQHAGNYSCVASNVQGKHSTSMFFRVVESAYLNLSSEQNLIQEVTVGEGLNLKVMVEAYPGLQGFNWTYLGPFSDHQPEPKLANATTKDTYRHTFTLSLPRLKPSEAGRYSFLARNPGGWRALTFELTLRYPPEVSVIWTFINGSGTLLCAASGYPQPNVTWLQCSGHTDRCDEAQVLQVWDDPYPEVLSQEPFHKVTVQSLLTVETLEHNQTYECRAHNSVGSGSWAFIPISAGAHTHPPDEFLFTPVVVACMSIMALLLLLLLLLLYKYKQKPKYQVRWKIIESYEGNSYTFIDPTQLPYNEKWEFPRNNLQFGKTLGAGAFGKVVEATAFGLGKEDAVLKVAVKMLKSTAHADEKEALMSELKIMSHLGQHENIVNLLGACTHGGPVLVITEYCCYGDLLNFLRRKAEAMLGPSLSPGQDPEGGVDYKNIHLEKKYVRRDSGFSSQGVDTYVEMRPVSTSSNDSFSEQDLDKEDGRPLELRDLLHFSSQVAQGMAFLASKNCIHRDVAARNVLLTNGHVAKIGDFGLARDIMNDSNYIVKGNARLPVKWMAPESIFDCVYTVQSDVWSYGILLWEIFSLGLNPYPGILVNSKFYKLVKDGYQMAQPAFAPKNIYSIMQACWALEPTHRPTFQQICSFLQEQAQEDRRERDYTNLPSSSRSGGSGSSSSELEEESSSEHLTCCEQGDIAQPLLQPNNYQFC
Procedure: (§4) Kinase-tagged T7 phage strains were grown in parallel in 24-well blocks in an E. coli host derived from the BL21 strain. E. coli were grown to log-phase and infected with T7 phage from a frozen stock (multiplicity of infection=0.4) and incubated with shaking at 32° C. until lysis (90-150 minutes). The lysates were centrifuged (6,000×g) and filtered (0.2 μm) to remove cell debris. The remaining kinases were produced in HEK-293 cells and subsequently tagged with DNA for qPCR detection.
(§5) Streptavidin-coated magnetic beads were treated with biotinylated small molecule ligands for 30 minutes at room temperature to generate affinity resins for kinase assays. The liganded beads were blocked with excess biotin and washed with blocking buffer (SeaBlock (Pierce), 1% BSA, 0.05% Tween 20, 1 mM DTT) to remove unbound ligand and to reduce non-specific phage binding. […] Test compounds were prepared as 40× stocks in 100% DMSO and directly diluted into the assay. All reactions were performed in polypropylene 384-well plates in a final volume of 0.04 ml. […] The beads were then re-suspended in elution buffer (1×PBS, 0.05% Tween 20, 0.5 μM non-biotinylated affinity ligand) and incubated at room temperature with shaking for 30 minutes. The kinase concentration in the eluates was measured by qPCR.

JAK2 = target: T3, JAK2 (Homo sapiens, UniProt O60674); assay: LanthaScreen JAK biochemical assay, JAK2; conditions: read-out: JAK 2 pKi (converted)
T3 construct: GST; purchased Life Technologies
T3 sequence (O60674 whole entry): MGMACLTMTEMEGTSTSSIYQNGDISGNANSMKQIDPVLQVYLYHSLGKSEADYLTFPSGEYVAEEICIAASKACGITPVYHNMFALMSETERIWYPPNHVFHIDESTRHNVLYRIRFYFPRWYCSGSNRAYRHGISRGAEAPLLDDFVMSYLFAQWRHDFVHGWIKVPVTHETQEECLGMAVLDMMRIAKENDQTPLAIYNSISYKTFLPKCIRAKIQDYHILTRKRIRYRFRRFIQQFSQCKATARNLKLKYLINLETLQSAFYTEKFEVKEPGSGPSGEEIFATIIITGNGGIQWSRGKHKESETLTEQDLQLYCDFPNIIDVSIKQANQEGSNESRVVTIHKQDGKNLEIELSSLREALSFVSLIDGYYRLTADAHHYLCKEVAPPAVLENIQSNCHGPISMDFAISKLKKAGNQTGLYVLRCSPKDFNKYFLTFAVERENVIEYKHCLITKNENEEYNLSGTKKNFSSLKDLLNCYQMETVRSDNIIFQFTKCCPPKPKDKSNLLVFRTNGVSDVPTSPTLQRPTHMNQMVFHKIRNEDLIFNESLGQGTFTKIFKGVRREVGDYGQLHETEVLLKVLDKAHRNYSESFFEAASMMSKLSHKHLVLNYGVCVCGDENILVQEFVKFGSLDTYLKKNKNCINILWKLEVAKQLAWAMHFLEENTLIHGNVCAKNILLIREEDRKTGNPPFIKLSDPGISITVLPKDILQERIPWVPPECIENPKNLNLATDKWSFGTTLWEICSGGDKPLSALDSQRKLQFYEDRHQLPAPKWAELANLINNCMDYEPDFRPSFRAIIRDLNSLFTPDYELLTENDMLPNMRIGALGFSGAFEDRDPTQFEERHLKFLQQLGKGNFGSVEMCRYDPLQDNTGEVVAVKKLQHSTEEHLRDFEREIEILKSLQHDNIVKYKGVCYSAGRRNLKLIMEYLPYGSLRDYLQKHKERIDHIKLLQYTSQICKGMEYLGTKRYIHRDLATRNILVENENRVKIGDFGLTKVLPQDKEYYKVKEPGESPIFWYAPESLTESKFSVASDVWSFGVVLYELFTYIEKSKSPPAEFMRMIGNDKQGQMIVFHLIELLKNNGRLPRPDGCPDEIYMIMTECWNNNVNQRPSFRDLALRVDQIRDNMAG
Procedure: as §1, §2, §3

PKAC-ALPHA = target: T4, PKAC-ALPHA (Homo sapiens, UniProt P17612); assay: Kinome screen, PKAC-ALPHA; assay type: binding; conditions: screened at 1 μM
T4 construct: made in house; host or cells: T7 phage in E. coli (BL21-derived) or HEK-293
Procedure: as §4, §5

[1] = Dermal pharmacokinetics in mini-pig skin; assay type: in vivo; conditions: model cream and ointment formulations, without detectable plasma exposure
Description: The objective of this assay was to determine the epidermal, dermal and plasma pharmacokinetics of a test compound following a 24 hr exposure to intact mouse or mini-pig skin.
Twenty-four hours prior to dosing the hair was shaved from the back of 25 g male Balb/c mice exposing an area at of least 6 cm^2 (about 10% of body surface) and, in a separate experiment, of 10 kg Gottingen mini-pigs exposing an area of at least 450 cm^2 (about 10% of body surface). At time zero, following isoflurane anesthesia, the test compound was applied to the back of mice or mini-pigs at a dose of 25 μL/cm^2. The skin was covered with an adhesive cover to prevent loss of compound to the cage or bedding.
Following 24 h exposure, the backs were gently washed with soap and water to remove non-absorbed drug and patted dry. Immediately following this washing, blood was drawn by cardiac puncture from the mice and via venipuncture from the mini-pigs. The outer skin (stratum corneum) was then removed by adhesive tape stripping. Upon exposure of the epidermis a 0.5 cm punch biopsy was taken. The epidermis and dermis were quickly separated, weighed and snap frozen. […]
Epidermis and dermis samples were homogenized in 1:10 (w/v) water using a Covaris ultrasonic homogenizer. Samples were extracted in 3 volumes of acetonitrile and quantified against a standard curve via LC-MS analysis.

T1 sequence (P29597 whole entry): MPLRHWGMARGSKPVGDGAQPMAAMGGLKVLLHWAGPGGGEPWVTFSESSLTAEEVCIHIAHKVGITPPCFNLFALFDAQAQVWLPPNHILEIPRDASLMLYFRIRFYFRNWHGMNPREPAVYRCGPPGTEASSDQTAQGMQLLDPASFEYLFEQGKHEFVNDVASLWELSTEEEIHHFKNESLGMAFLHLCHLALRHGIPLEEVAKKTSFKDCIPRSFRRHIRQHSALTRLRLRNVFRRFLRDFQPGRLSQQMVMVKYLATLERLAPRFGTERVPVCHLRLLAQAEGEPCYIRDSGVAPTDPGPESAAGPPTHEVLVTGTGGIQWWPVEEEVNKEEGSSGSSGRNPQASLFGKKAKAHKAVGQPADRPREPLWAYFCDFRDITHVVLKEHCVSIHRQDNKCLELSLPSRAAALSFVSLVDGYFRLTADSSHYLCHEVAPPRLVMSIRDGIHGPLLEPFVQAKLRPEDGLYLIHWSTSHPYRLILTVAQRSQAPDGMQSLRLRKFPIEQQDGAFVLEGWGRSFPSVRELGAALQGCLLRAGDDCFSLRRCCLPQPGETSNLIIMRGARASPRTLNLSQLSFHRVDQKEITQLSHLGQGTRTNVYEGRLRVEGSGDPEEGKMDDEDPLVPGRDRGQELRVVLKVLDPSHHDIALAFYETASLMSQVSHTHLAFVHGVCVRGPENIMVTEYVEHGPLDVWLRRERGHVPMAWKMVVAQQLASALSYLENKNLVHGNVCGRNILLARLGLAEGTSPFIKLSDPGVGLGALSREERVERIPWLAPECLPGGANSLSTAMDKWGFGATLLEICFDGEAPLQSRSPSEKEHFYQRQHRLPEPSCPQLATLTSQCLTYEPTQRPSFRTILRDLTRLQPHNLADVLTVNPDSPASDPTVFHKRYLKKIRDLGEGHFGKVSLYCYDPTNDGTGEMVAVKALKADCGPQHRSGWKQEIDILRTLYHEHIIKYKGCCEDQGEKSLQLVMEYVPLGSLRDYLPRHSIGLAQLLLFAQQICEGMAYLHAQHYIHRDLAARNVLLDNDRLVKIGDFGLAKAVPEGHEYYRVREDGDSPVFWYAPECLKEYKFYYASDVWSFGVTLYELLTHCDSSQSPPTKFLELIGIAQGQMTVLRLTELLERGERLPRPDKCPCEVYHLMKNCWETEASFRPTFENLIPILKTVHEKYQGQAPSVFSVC

**Q.** With `CCc1cc(O)c(F)cc1-c1cc(F)c2c(-c3nc4c([nH]3)CCN(C(=O)CN3CCOCC3)C4)n[nH]c2c1` [Compound 1, 1-(2-(6-(2-ethyl-5-fluoro-4-hydroxyphenyl)-4-fluoro-1H-indazol-3-yl)-1,4,6,7-tetrahydro-5H-imidazo[4,5-c]pyridin-5-yl)-2-morpholinoethan-1-one] as the compound, how does the Ki (Tyk2) read?
**A.** 2 nM

**Q.** And the “inhibition of IFNγ-induced IP-10 in retina/choroid tissues” value (IFNγ induced IP-10)?
**A.** 80%

**Q.** What about the “inhibition of IFNγ-induced IP-10 in vitreous humor” value (IFNγ induced IP-10) of the same compound?
**A.** 81%

**Q.** And the inhibition at 1 µM (CSF1R)?
**A.** 98%

**Q.** And the Ki (JAK2)?
**A.** 0.0251 nM

**Q.** What about the inhibition at 1 µM (PKAC-ALPHA) of the same compound?
**A.** 20%

**Q.** What about the “duration of sustained dermal levels” value [1] of the same compound?
**A.** at least 7 days
